One test deals with HCV genotype 1b replicon. Kind of test: HCV replicon assay, genotype 1b replicon EC50. The class given is cell-based, Hepatitis C virus. As to conditions: read-out: EC50 [gt-1b]. The essentials:
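Stable neomycin phosphotransferase-encoding replicon cell lines, kept under G418 selection beforehand, were plated with a compound dilution series without G418 and incubated 24-48 hours. Replicon RNA was then quantified, or luciferase activity read. EC50 was calculated as percent of DMSO control by four-parameter fit.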
A general note: In antiviral work, replicon cells carry a viral genome segment that copies itself.

The target of test [1] is HCV NS3/4A protease genotype 1b (Hepatitis C virus genotype 1b, UniProt P26663). The experiment in a line: HCV NS3/4A protease time-resolved fluorescence (TRF) assay, Ki against genotype 1b. The class given is biochemical. A digest of the protocol: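 Ki values come from IC50 fits corrected for substrate concentration and KM. The time-resolved fluorescence protease reaction used 25 nM peptide substrate, 2.5 h, room temperature, pH 7.5 HEPES buffer, after 30 min enzyme–inhibitor preincubation.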
Sequence of HCV NS3/4A protease genotype 1b (P26663 1027-1657): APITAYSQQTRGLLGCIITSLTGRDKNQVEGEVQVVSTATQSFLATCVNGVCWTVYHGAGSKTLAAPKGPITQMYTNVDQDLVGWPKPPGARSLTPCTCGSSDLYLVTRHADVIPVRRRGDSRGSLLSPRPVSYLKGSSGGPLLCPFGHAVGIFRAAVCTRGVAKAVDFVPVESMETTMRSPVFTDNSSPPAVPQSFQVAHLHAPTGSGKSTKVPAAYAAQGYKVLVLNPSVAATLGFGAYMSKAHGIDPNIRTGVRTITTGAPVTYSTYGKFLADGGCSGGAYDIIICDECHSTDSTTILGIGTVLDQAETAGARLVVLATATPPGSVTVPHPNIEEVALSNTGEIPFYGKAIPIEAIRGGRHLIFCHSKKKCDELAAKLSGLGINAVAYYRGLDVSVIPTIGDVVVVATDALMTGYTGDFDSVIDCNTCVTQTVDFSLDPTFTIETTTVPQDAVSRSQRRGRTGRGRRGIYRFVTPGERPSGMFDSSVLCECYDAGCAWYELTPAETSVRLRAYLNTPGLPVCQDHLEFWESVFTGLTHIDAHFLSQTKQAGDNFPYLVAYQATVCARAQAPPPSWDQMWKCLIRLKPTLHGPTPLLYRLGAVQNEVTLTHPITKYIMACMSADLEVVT
Sequence of HCV NS3/4A protease genotype 1b (P26663 1658-1711): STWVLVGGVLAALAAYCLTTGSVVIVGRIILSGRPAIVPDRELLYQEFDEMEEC

Where [2] appears, read: Hepatitis C virus, genotype 1b replicon.
[3] abbreviates: IC50 [gt-1b] (nM), NS3/4A genotype 1b, enzyme 0.2 nM.
The mark [4] stands for this setting: Hepatitis C virus, HCV replicon, genotype 1b.
The mark [5] stands for this setting: IC50 [gt-1b], NS3/4A protease TRF assay, genotype 1b enzyme 0.2 nM.
The mark [6] stands for this setting: Hepatitis C virus, genotype 1b replicon, K+ salt.
Where [7] appears, read: IC50 [gt-1b] (nM), NS3/4A genotype 1b, enzyme 0.2 nM, K+ salt.

Our source for the EC50 and IC50 values is patent US8987195B2 (priority 2012, dated 2015).

Like-named read-outs stand apart in the source and are kept apart here.

For orientation: EC50 means the concentration giving half of the maximal effect. The IC50 is the midpoint of a concentration-inhibition curve. With `CCc1nc2ccc(OC)cc2c2c1O[C@]1(CC2)C[C@H]2C(=O)N[C@]3(C(=O)NS(=O)(=O)C4(C)CC4)C[C@H]3/C=C\CCCCC[C@H](NC(=O)OC3CCCC3)C(=O)N2C1` [Example 336, cyclopentyl [(2R,6S,12Z,13aS,14aR,16aS)-5′-ethyl-9′-methoxy-14a-{[(1-methylcyclopropyl)sulfonyl]carbamoyl}-5,16-dioxo-1,1′,2′,5,6,7,8,9,10,11,13a,14,14a,15,16,16a-hexadecahydrospiro[cyclopropa[e]pyrrolo[1,2-a][1,4]diazacyclopentadecine-2,3′-pyrano[2,3-c]quinolin]-6-yl]carbamate], the EC50 with HCV genotype 1b replicon (setting [2]) is 3.46 nM. In test [1] (setting [3]), the IC50 came to 0.008 nM.
Take `CC(C)C1(OC(=O)N[C@H]2CCCCC/C=C\[C@@H]3C[C@@]3(C(=O)NS(=O)(=O)C3(C)CC3)NC(=O)[C@@H]3C[C@]4(CCc5c(c(C(F)(F)F)nc6ccccc56)O4)CN3C2=O)CC1` [Example 158, 1-(propan-2-yl)cyclopropyl [(2R,6S,12Z,13aS,14aR,16aS)-14a-{[(1-methylcyclopropyl)sulfonyl]carbamoyl}-5,16-dioxo-5′-(trifluoromethyl)-1,1′,2′,5,6,7,8,9,10,11,13a,14,14a,15,16,16a-hexadecahydrospiro[cyclopropa[e]pyrrolo[1,2-a][1,4]diazacyclopentadecine-2,3′-pyrano[2,3-c]quinolin]-6-yl]carbamate]: the EC50 in the test on HCV genotype 1b replicon (setting [2]) was 1.17 nM. For the same compound, in test [1] (setting [3]), the IC50 is 0.02 nM.
As to `CC(C)(OC(=O)N[C@H]1CCCCC/C=C\[C@@H]2C[C@@]2(C(=O)NS(=O)(=O)C2(C)CC2)NC(=O)[C@@H]2C[C@]3(CCc4c(c(C(F)(F)F)nc5ccc(Cl)cc45)O3)CN2C1=O)C(F)(F)F` [Example 387, 1,1,1-trifluoro-2-methylpropan-2-yl [(2R,6S,12Z,13aS,14aR,16aS)-9′-chloro-14a-{[(1-methylcyclopropyl)sulfonyl]carbamoyl}-5,16-dioxo-5′-(trifluoromethyl)-1,1′,2′,5,6,7,8,9,10,11,13a,14,14a,15,16,16a-hexadecahydrospiro[cyclopropa[e]pyrrolo[1,2-a][1,4]diazacyclopentadecine-2,3′-pyrano[2,3-c]quinolin]-6-yl]carbamate], in the test with HCV genotype 1b replicon (setting [4]), the EC50 came to 20.1 nM. In test [1] (setting [5]), this compound gave an IC50 of 0.038 nM.
Consider `Cc1nc2ccccc2c2c1O[C@]1(CC2)C[C@H]2C(=O)N[C@]3(C(=O)CS(=O)(=O)C4(C)CC4)C[C@H]3/C=C\CCCCC[C@H](NCCC3CCCC3)C(=O)N2C1` [Example 161], for which, in the test with HCV genotype 1b replicon (Hepatitis C virus, GETYPE1B|GT1B, genotype 1b replicon), the EC50 worked out at 3.02 nM. This compound returned a concentration for half-maximal inhibition (IC50) in test [1] (setting [3]) of 0.138 nM.
As to `CCc1ccc2nc(C)c3c(c2c1)C(F)C[C@]1(C[C@H]2C(=O)N[C@]4(C(=O)NS(=O)(=O)C5(C)CC5)C[C@H]4/C=C\CCCCC[C@H](NC(=O)OC(C)(C)C(F)(F)F)C(=O)N2C1)O3` (single isomer, unassigned) [Example 347], the concentration for a half-maximal effect (EC50) in the test with HCV genotype 1b replicon (genotype 1b replicon) worked out at 3060 nM. The compound further yielded an IC50 in test [1] (setting [3]) of 0.981 nM.
On to `Cc1nc2ccc(C3CC3)cc2c2c1O[C@]1(CC2)C[C@H]2C(=O)N[C@]3(C(=O)NS(=O)(=O)C4(C)CC4)C[C@H]3/C=C\CCCCC[C@H](NC(=O)OC(C)(C)C)C(=O)N2C1` [Example 332, tert-butyl [(2R,6S,12Z,13aS,14aR,16aS)-9′-cyclopropyl-5′-methyl-14a-{[(1-methylcyclopropyl)sulfonyl]carbamoyl}-5,16-dioxo-1,1′,2′,5,6,7,8,9,10,11,13a,14,14a,15,16,16a-hexadecahydrospiro[cyclopropa[e]pyrrolo[1,2-a][1,4]diazacyclopentadecine-2,3′-pyrano[2,3-c]quinolin]-6-yl]carbamate], for which, in the test on HCV genotype 1b replicon (setting [2]), the EC50 was determined as 2.69 nM. The same compound had an IC50 in test [1] (setting [3]) of 0.017 nM.
Regarding `CC(C)(C)OC(=O)N[C@H]1CCCCC/C=C\[C@@H]2C[C@@]2(C(=O)NS(=O)(=O)C2(C)CC2)NC(=O)[C@@H]2C[C@]3(CCc4c(c(C(F)(F)F)nc5ccc(OCCN6CC(F)(F)C6)cc45)O3)CN2C1=O` [Example 518, tert-butyl [(2R,6S,12Z,13aS,14aR,16aS)-9′-[2-(3,3-difluoroazetidin-1-yl)ethoxy]-14a-{[(1-methylcyclopropyl)sulfonyl]carbamoyl}-5,16-dioxo-5′-(trifluoromethyl)-1,1′,2′,5,6,7,8,9,10,11,13a,14,14a,15,16,16a-hexadecahydrospiro[cyclopropa[e]pyrrolo[1,2-a][1,4]diazacyclopentadecine-2,3′-pyrano[2,3-c]quinolin]-6-yl]carbamate], in the test with HCV genotype 1b replicon (setting [4]), the EC50 worked out at 0.726 nM. Further, the concentration for half-maximal inhibition (IC50) in test [1] (setting [5]) came out at 0.012 nM.
For `Cc1nc2ccccc2c2c1O[C@@]1(C[C@H]3C(=O)N[C@]4(C(=O)NS(=O)(=O)C5(C)CC5)C[C@H]4/C=C\CCCCC[C@H](NC(=O)OC4CCCC4)C(=O)N3C1)CC2(F)F` [Example 149, cyclopentyl [(2S,6S,12Z,13aS,14aR,16aS)-1′,1′-difluoro-5′-methyl-14a-{[(1-methylcyclopropyl)sulfonyl]carbamoyl}-5,16-dioxo-1,1′,2′,5,6,7,8,9,10,11,13a,14,14a,15,16,16a-hexadecahydrospiro[cyclopropa[e]pyrrolo[1,2-a][1,4]diazacyclopentadecine-2,3′-pyrano[2,3-c]quinolin]-6-yl]carbamate], the EC50 with HCV genotype 1b replicon (setting [2]) came out at 0.195 nM. This compound also gave an IC50 in test [1] (setting [3]) of 0.022 nM.
As to `COc1ccc2nc(C)c3c(c2c1)CC[C@]1(C[C@H]2C(=O)N[C@]4(C(=O)NS(=O)(=O)C5(C)CC5)C[C@H]4/C=C\CCCCC[C@H](NC(=O)OCC(C)(C)C)C(=O)N2C1)O3` [Example 205, 2,2-dimethylpropyl [(2R,6S,12Z,13aS,14aR,16aS)-9′-methoxy-5′-methyl-14a-{[(1-methylcyclopropyl)sulfonyl]carbamoyl}-5,16-dioxo-1,1′,2′,5,6,7,8,9,10,11,13a,14,14a,15,16,16a-hexadecahydrospiro[cyclopropa[e]pyrrolo[1,2-a][1,4]diazacyclopentadecine-2,3′-pyrano[2,3-c]quinolin]-6-yl]carbamate], the EC50 with HCV genotype 1b replicon (setting [6]) was determined as 0.647 nM. Besides, the IC50 in test [1] (setting [7]) worked out at 0.005 nM.
The like results for `Cc1nc2ccc(OC(F)F)cc2c2c1O[C@]1(CC2)C[C@H]2C(=O)N[C@]3(C(=O)NS(=O)(=O)C4(C)CC4)C[C@H]3/C=C\CCCCC[C@H](NC(=O)OC3CCCC3)C(=O)N2C1` [Example 268, cyclopentyl [(2R,6S,12Z,13aS,14aR,16aS)-9′-(difluoromethoxy)-5′-methyl-14a-{[(1-methylcyclopropyl)sulfonyl]carbamoyl}-5,16-dioxo-1,1′,2′,5,6,7,8,9,10,11,13a,14,14a,15,16,16a-hexadecahydrospiro[cyclopropa[e]pyrrolo[1,2-a][1,4]diazacyclopentadecine-2,3′-pyrano[2,3-c]quinolin]-6-yl]carbamate] were, in that order, 4.03 nM and 0.003 nM.
As for `Cc1nc2ccccc2c2c1O[C@]1(CC2)C[C@H]2C(=O)N[C@]3(C(=O)NS(=O)(=O)C4(C)CC4)C[C@H]3/C=C\CCCCC[C@H](NC(=O)OCCF)C(=O)N2C1` [Example 127, 2-fluoroethyl [(2R,6S,12Z,13aS,14aR,16aS)-5′-methyl-14a-{[(1-methylcyclopropyl)sulfonyl]carbamoyl}-5,16-dioxo-1,1′,2′,5,6,7,8,9,10,11,13a,14,14a,15,16,16a-hexadecahydrospiro[cyclopropa[e]pyrrolo[1,2-a][1,4]diazacyclopentadecine-2,3′-pyrano[2,3-c]quinolin]-6-yl]carbamate], the EC50 in the test on HCV genotype 1b replicon (setting [2]) was 0.394 nM. In test [1] (setting [3]), this compound had an IC50 of 0.031 nM.
